Assay results taken from patent US5324648A, “Substituted isocoumarins as serine protease inhibitors and anti-inflammatory agents” (Georgia Tech Research Corporation, priority 1992, dated 1994).

Experiments:
rat granule chymase [1] = assay: Reactivation of inhibited rat granule chymase; assay type: biochemical; settings: [I] 39 μM; +NH2OH 0.36M
Procedure: (§1) ^a Inhibition was performed at 0.1M Hepes, 0.5M NaCl, pH 7.5 buffer,
(§2) 10% Me2 SO and 25° C. Reactivation was carried out in the
presence of 0.36M of NH2 OH, and occurred immediately after the […]

chymotrypsin [2] = biological target: T1, chymotrypsin (Bos taurus, UniProt P00766); assay: Inactivation of chymotrypsin; assay type: biochemical, bovine; settings: Table XIII; pH 7.5, 25° C; [I] 20-400 μM; read-out: kobs/[I]
cathepsin G = biological target: T2, cathepsin G (Homo sapiens, UniProt P08311); assay: Inactivation of cathepsin G; assay type: biochemical; settings: Table XIII; [I] 75-400 μM
T2 construct: from tissue; host or cells: human leukocytes
T2 sequence (P08311 21-255): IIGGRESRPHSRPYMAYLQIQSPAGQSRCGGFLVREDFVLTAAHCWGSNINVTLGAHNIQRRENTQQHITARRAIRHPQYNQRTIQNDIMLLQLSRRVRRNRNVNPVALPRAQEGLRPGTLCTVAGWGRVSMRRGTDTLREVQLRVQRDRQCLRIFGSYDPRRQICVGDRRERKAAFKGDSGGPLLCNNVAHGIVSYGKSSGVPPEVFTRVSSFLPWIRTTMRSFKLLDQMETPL

rat granule tryptase = assay: Inhibition of rat granule tryptase; assay type: biochemical; settings: Table XIV
Procedure: (§3) ^a Inhibition was measured at 0.1M Hepes, 0.5M NaCl, pH 7.5 buffer,
(§4) 10% Me2 SO and 25° C. Suc--Phe--Leu--PheSBzl (0.14 mM) and
(§5) ZGly--ArgSBzl (0.06 mM) were used to measure chymase and tryptase activit

rat granule chymase [3] = assay: Inhibition of rat granule chymase; assay type: biochemical; settings: Table XIV, not time dependent
Procedure: as §3, §4, §5

chymotrypsin [4] = biological target: T1, chymotrypsin; assay: Reactivation of inhibited chymotrypsin; assay type: biochemical, bovine
Procedure: as §1, §2
presence of 0.36M of NH2 OH, and occurred immediately after the
^b Enzyme activity was measured after two days.

[5] = [I] 39 μM, in buffer, after two days
[6] = [I] 78 μM, in buffer, after two days

% of Enzyme Activity Reactivated (rat granule chymase [1]) | kinact/KI (chymotrypsin [2]) [M⁻¹ s⁻¹] | inhibition (cathepsin G) [%] | kobs/[I] (rat granule tryptase; [I] 0.078 mM) [M⁻¹ s⁻¹] | % of inhibition (rat granule chymase [3]; [I] 0.078 mM) | % of Enzyme Activity Reactivated (chymotrypsin [4]; [I] 39 μM, +NH2OH 0.36M) [%] | % of Enzyme Activity Reactivated (chymotrypsin [4]; [5]) [%] | % of Enzyme Activity Reactivated (chymotrypsin [4]; [I] 78 μM, +NH2OH 0.36M) [%] | % of Enzyme Activity Reactivated (chymotrypsin [4]; [6]) [%] | kobs/[I] (rat granule tryptase; [I] 0.2 mM) [M⁻¹ s⁻¹] | % of inhibition (rat granule chymase [3]; [I] 0.2 mM) | SMILES
30-50% | 1080 | 13 | 6 to 12 | 30-50% | 50 | 6 | 40 | 0 | – | – | O=C(CCCC[C@@H]1SC[C@@H]2NC(=O)N[C@@H]21)NCCCCCC(=O)Nc1ccc2c(Cl)c(OCCc3ccccc3)oc(=O)c2c1 [7-(6-biotinylaminocaproyl)amino-4-chloro-3-(2-phenylethoxy)isocoumarin]
100% | – | – | – | – | 85 | 51 | 79 | 7 | 2 to 3 | 10-20% | O=C(CCCC[C@@H]1SC[C@@H]2NC(=O)N[C@@H]21)Nc1ccc2c(Cl)c(OCCc3ccccc3)oc(=O)c2c1 [7-biotinylamino-4-chloro-3-(2-phenylethoxy)isocoumarin]
